According to patent US20200390102A1, “SYNERGISTIC ANTIMICROBIAL COMPOSITION” (DDP SPECIALTY ELECTRONIC MATERIALS US, INC., priority 2017, published 2020):

Columns and labels:
[1] = system: Thermus thermophilus (DSM: 579); experiment: Synergy in the planktonic phase, 48 h biocide challenge at 60° C. with dilution-series regrowth readout; assay type: cell-based
Method: Experiments using Thermus thermophdus (DSM: 579) as a test organism were also performed. In these experiments, the total concentration of biocides was 300 ppm for the combined total actives, the temperature at which the experiments were performed was 60° C., the media to grow Thermus thermophdus was DSMZ DSM 74-Media at pH 8.0. (Yeast extract (BD Difco) 4.0 g, Proteose peptone Nr. 3 (BD Difco) 8.0 g, NaCl 2.0 g, distilled water added to 1 L). The challenging with biocides against Thermus thermophilus was done in a standard ocean matrix with a similar salinity of 2% (similar to the media where they are cultured in). Once again, each experiment was done in triplicate.
The inoculated assay block was challenged at 60° C. for 48 hours. The inoculum prepared added between to 1*10^8 to 1*10^9 total cells/mL (determined by MPN analysis). After 48 hours of challenge with biocide, 20 μL aliquots of each treatment (well) were added to one of several 96 well plates with DSM 74-media. These 96 well plates were filled with ‘recovery’ media (DSM 74-Media). One of these plates was prepared for each column of the assay block. 180 μL recovery media was added to each well of a 96 well plate, except for column 1 of the recovery plate. This column was filled with 180 μL of one column of the assay block. The last three columns on the recovery plate were not pipetted. These columns represented the no template control for verifying proper plate set up and data reliability. The assay block sample was then diluted in steps of 10 fold by transferring 20 μL from e.g. columns 1 to column 2 and from column 2 to column 3 (until column 9) by applying a multichannel pipet in each recovery plate. […]
The recovery plates were allowed to regrow for 4-6 days and subsequently read (checked for microbial growth). This was done in duplicate for each point (the duplicate is already present in the biocide block viz. each point is truly determined in duplicate). […] Turbidity was checked in log scale reading the recovery plates. Turbidity was recorded via presence/absence and gave the log kill range (from the made dilution series). […]

[2] = system: Pseudomonas aeruginosa (ATCC […]) and Escherichia coli (ATCC 10145) combined inoculum; experiment: Synergy in the planktonic phase, 48 h biocide challenge with regrowth (turbidity) readout; assay type: cell-based; conditions: P. aeruginosa/E. coli, 48 h challenge at 30° C., phosphate buffer pH 7.3
Method: Pseudomonas aeruginosa (ATCC […]) and Escherichia coli (ATCC 10145) cultures were separately prepared from glycerol stocks. First they were streak plated and validated with a microscope. Single colonies were picked and used to inoculate 200 mL shake flasks that were grown statically overnight at 30° C. (30 grams/L Tryptic Soy Broth) to produce the initial inoculum. A deep-well 96 well challenge plate (2 mL maximum well volume) was prepared using 900 μL/well phosphate buffer at pH 7.3, (0.0027M potassium chloride, 0.137 M sodium chloride). Inoculation took place at the start of the experiments (with a 100 μL combined inoculum, adding to the 900 μL buffer to total 1 mL/well). The inoculum added between 1*10^8 and 1*10^9 total cells/mL based on OD600 measurement. […]
The inoculated assay block was challenged at 30° C. for 48 hours. […] This was done in triplicate for each point (the triplicate is already present in the biocide block viz. each point is truly determined in triplicate). […]
The recovery plates were subsequently read (checked for microbial growth) at 72 hours after addition of the culture, to recovery media. Ranking of biocidal efficacy was done by recording the development of turbidity within each well (determined by visual inspection). […] Ranking was done per average value of three data points determined per experiment. (Recorded in log regrowth). […]

Molecule	Glyoxal stand alone 48 h pass ([1]; T. thermophilus, glyoxal alone, 48 h challenge at 60° C., ocean matrix 2% salinity)	Sensitivity of Thermus thermophilus to Glyoxal ([1]; vs. Pseudomonas aeruginosa and E. coli)	Glyoxal stand alone 48 h pass ([2]; glyoxal alone)	THPS stand alone 48 h pass ([1]; T. thermophilus, THPS alone, 48 h challenge at 60° C., ocean matrix 2% salinity)	THPS stand alone 48 h pass ([2]; THPS alone)
O=CC=O [Glyoxal, glyoxal]	59 ppm	*Thermus thermophilus is more sensitive to Glyoxal vs. Pseudomonas aeruginosa and E. coli.	875 ppm	–	–
tetrakis(hydroxymethyl)phosphonium sulfate [THPS]	–	–	–	300 ppm	130 ppm
